“Also recorded” adds a separate entry of the source.
Key:
[1] = test system: Diaprepes abbreviatus antenna (male and female); assay: gas chromatograph-coupled electroantennogram detection (GC-EAD) of antennal response; conditions: for antennal response (GC-EAD) to peaks of headspace extract: hexane extract of headspace volatiles from adult males and citrus leaves (FIG. 2); for antennal response (GC-EAD): male and female antennae, 50 ng linalool and 100 ng synthetic compound in hexane (FIG. 4)
From the text: In a first assay employed to find an attractive chemical of insect origin, a gas chromatograph-coupled electroantennogram detection (GC-EAD) system was used to analyze male aeration samples. This system included an Agilent 7890A GC equipped with a split/splitless injector, an HP-1 capillary column (approximately 30 m×0.32 mm×0.25 μm, Agilent Technologies, Inc., Santa Clara, Calif., USA), a post column glass Y-tube (Supelco, Bellefonte, Pa., USA) splitter for dividing column effluent in an approximately 1:1 ratio between a flame ionization detector (FID) and a heated (200° C.) EAD transfer line. Two lengths of deactivated column (approximately 0.32 mm ID) were used to carry effluent to the FID and EAD port after the split. At the start of GC-EAD runs, the GC oven temperature was held at about 35° C. for 3 minutes and then increased to about 260° C. at a rate of about 15° C./min and held at about 260° C. for about 10 min. Injector and FID temperatures were set at about 220° C. and about 300° C., respectively. Splitless injection was used with helium as the carrier gas at a flow rate of about 2.3 ml/min. A heated transfer line emptied into a charcoal-filtered, humidified air stream (about 200 ml/min at about 30 cm/sec) that carried the effluent over an antennal preparation. The antennal preparation can be made by plucking the antenna from either a male or female insect (grasping it firmly at the base of the antenna near the head with fine forceps) and placing the antenna between two metal electrodes of a Universal EAG probe, to which small amounts of salt-free electrode gel (Spectra 360, Parker Laboratories, Fairfield, N.J., USA) had been applied. The probe was connected to a type PRG-2 amplifier (Universal EAG probe, Syntech, Hilversum, The Netherlands). The humidified air stream was directed to pass over the antennal preparation generating a signal. […] […] […] […] Antennae from male and female D. abbreviatus were used as detectors to confirm antennal response to the synthetic compound.

[2] = test system: Diaprepes abbreviatus adults; assay: two-choice olfactometer behavioral bioassay; type: in vivo; conditions: for Number choosing A (air) / Number choosing B (odor source): A: air vs B: odor source; for No choice (number): moved to but remained in central arena; for No response (number): remained in inlet
Method: Behavioral response to the pheromone was tested in an olfactometer (Model 4C, ARS, Inc., Micanopy, Fla. USA) wherein individual weevils (starved for about 24 h) were placed in a glass inlet and allowed to walk upwards into the center of an arena with a balanced, filtered and humidified airflow from two arms oriented at 180° to each other and outfitted with glass reservoirs containing an odor source or blank. The assays were conducted in the dark between about 9 AM and 2 PM; each run was terminated when the weevil moved into one of the glass receptacles or when about 15 min had elapsed. Assays were run in the dark because of a strong phototropic response in this insect (Lapointe and Hall 2009). Weevil position was scored as no-response (remaining in the inlet), no-choice (moving to but remaining in the central arena) or choosing one of the two arms. Responses of unmated approximately 4 to 6-week-old males and females were recorded to various odor sources: fresh young citrus leaves (flush), flush fed upon for about 24 hr by male D. abbreviatus, approximately 30 μg of methyl (E)-3-(2-hydroxyethyl)-4-methyl-2-pentenoate in approximately 10:1 hexanes:ethyl acetate pipetted onto a glass slide, and a clean glass slide. All glass components of the olfactometer were thoroughly washed between runs with warm soap and water, rinsed with methanol and air-dried. Between replications of a given treatment, the arms of the olfactometer used for that treatment were switched to control for bias in the apparatus. The number of weevils choosing a treatment arm was compared with the control arm (clean air) by the G-test (Sokal and Rohlf 1994).

[3] = stability of the pheromone (lactonization; acid, heat, storage); type: physicochemical; conditions: for stability in acidic medium (lactonization to 2): acid-catalyzed THP removal, CDCl3 with residual acidity
Method: At the core of the chosen synthetic route lies a stereoselective carbocupration of α,β-acetylenic esters that was exclusively cis-stereospecific when the reaction was conducted in THF at low temperatures (Corey and Katzenellenbogen 1969, Bourque et al. 1999, Drew et al. 1999). However, a conjugate addition of a heterocuprate, formed in situ from isopropylmagnesium bromide and copper(I) iodide in the presence of N,N,N,N'-tetramethylethylenediamine ([…] et al. 1984), to the acetylenic ester (FIG. 1) proceeded with some loss of stereoselectivity resulting in a mixture of E and Z olefinic esters in an approximately 92:8 ratio. During acid-catalyzed removal of the tetrahydropyranyl (THP) protecting group, the ratio of 1E and 1Z dropped to approximately 86:14 and a considerable amount of lactone 2 was formed, thus indicating instability of the putative pheromone in acidic medium.

[4] = test system: Diaprepes abbreviatus antenna (male and female); conditions: used as co-injected control for antenna viability; cited from earlier work

CC(C)=CCC/C(C)=C/C=O [geranial, reference compound]
antennal response (GC-EAD) to peaks of headspace extract [1]: positive antennal responses

COC(=O)/C=C(\CCO)C(C)C [methyl (E)-3-(2-hydroxyethyl)-4-methyl-2-pentenoate]
Number choosing A (air) ([2]; female weevils): 17 | Number choosing B (odor source) ([2]; female weevils): 48 | No choice (number) ([2]; female weevils): 17 | No response (number) ([2]; female weevils): 71 | preference for odor source versus clean air (in words) ([2]; female weevils, α=0.05, G-test): consistently moved upwind more often | preference for odor source versus clean air (in words) ([2]; female weevils, α=0.05, G-test, listed as synthetic pheromone): more often as compared to clean air | Number choosing A (air) ([2]; male weevils): 30 | Number choosing B (odor source) ([2]; male weevils): 34 | preference for odor source versus clean air (in words) ([2]; male weevils, listed as pheromone): did not show a clear preference | preference for odor source versus clean air (in words) ([2]; male weevils, listed as synthetic pheromone): no clear preference | No choice (number) ([2]; male weevils): 20 | No response (number) ([2]; male weevils): 69 | stability in acidic medium (lactonization to 2) ([3]; listed as 1E): noticeable cyclization of 1E to 2 | stability in acidic medium (lactonization to 2) ([3]; listed as putative pheromone): instability | thermal stability ([3]; preparative GC with conventional injection port): thermal instability | storage stability ([3]; purified sample, up to 25° C. in aprotic solvents (benzene, hexane, ethyl acetate)): stores indefinitely | antennal response (GC-EAD) to peaks of headspace extract [1]: elicit a response from male and female antennae | antennal response (GC-EAD) [1]: Both male and female antennae responded

CC(C)=CCC/C(C)=C/CO (single isomer, unassigned) [geraniol, reference compound]
antennal response (GC-EAD) to peaks of headspace extract [1]: positive antennal responses

CC(C)C1=CC(=O)OCC1 [lactone]
antennal response (GC-EAD) [1]: No antennal response; also recorded: Neither responded

C=CC(C)(O)CCC=C(C)C (single isomer, unassigned) [linalool, reference compound]
antennal response (GC-EAD) to peaks of headspace extract [1]: positive antennal responses | antennal response (GC-EAD) [1]: Both male and female antennae responded | antennal response, previously determined [4]: consistent antennal response

COC(=O)/C=C(/CCO)C(C)C [methyl (Z)-3-(2-hydroxyethyl)-4-methyl-2-pentenoate]
antennal response (GC-EAD) [1]: inactive | antennal response (GC-EAD) ([1]; listed as Z isomer): No antennal response; also recorded: Neither responded

Source: US8663621B2, “Identification and synthesis of a male-produced pheromone for the neotropical root weevil Diaperpes abbreviatus (coleoptera: curculionidae)” (The United States of America, as Represented by the …, priority 2012, dated 2014)
